Results taken from US11382892B2, “Method for administration” (Hoffmann-La Roche Inc., priority 2012, dated 2022).
Several values for one entry are separate records, joined by “and”; a condition that tells them apart may be missing. Identical values can stand only once.

Columns and labels:
[1] = system: Ki-67 protein; assay: Ki-67 IHC assay in patient tumor biopsies; format: in vivo, human; settings: for Ki-67 IHC Average % CBL: cohort average; for Ki-67 IHC Median % CBL: cohort median; for Ki-67 IHC % CBL: individual patients, tumor biopsy vs baseline
Procedure: The 10 mg tablets contain hypromellose acetate succinate, mannitol, microcrystalline cellulose, croscarmellose sodium, colloidal silicon dioxide, and magnesium stearate. The film-coat consists of hypromellose, titanium dioxide, talc, triacetin, iron oxide yellow, and iron oxide red. The 50 mg, 200 mg, and 400 mg film coated tablets contain the excipients hypromellose acetate succinate, croscarmellose sodium, colloidal silicon dioxide, and magnesium stearate. The film-coat consists of polyvinyl alcohol, titanium dioxide, polyethylene glycol, talc, iron oxide yellow, iron oxide red, and iron oxide black.
Tumor biopsies were collected at baseline and cycle 1, day 5±2.
The Ki-67 protein is a cellular marker for proliferation. It is strictly associated with cell proliferation and can be measured in tissue sections via immunohistochemistry to determine degree of proliferation. Ki-67 protein is present during all active phases of the cell cycle (G1, S, G2, and mitosis), but is absent from resting cells (00).

[2] = system: solid tumors; assay: On-going Phase I studies in solid tumors; format: in vivo, human
Description: Thus, a 3-5 daily treatment schedule is expected to provide the best benefit ratio taking into consideration efficacy and toxicity.

[3] = system: human osteosarcoma cancer xenograft model SJSA1; assay: Antitumor activity (tumor volume, TGI, regression) in SJSA1 xenograft; format: in vivo, mice; settings: for Full Regression / Partial Regression: 10 animals per group
Description: Efficacy data was graphically represented as the mean tumor volume*standard error of the mean (SEM). In addition, tumor volumes of treated groups were presented as percentages of tumor volumes of the control groups (% T/C), using the formula: 100×((T−T0)/(C−C0)), where T represented mean tumor volume of a treated group on a specific day during the experiment, T0 represented mean tumor volume of the same […] group on the first day of treatment; C represented mean tumor volume of a control group on the specific day during the experiment, and C0 represented mean tumor volume of the same […] group on the first day of treatment.
Tumor volume (in cubic millimeters) was calculated using the ellipsoid formula: (D×(d^2))/2, where “D” represents the large diameter of the tumor and “d” represents the small diameter. In some cases, tumor regression and/or percent change in tumor volume was calculated using the formula: ((T−T0)/T0)×100, where ‘T’ represents mean tumor volume of the treated group at a particular day, and ‘T0’ represents mean tumor volume of the same treated group at initiation of treatment.
All dose levels are reported as the actual dosage of Compound A rather than including drug plus polymer.
Female athymic Crl:NU-Foxn1nu mice (10/group), obtained from Charles River Laboratories (Wilmington, Del.) were utilized when they were approximately 10-12 weeks of age and weighed 23-25 g. The health of the mice was assessed daily by gross observation and analyses of blood samples taken from sentinel animals housed on shared shelf racks. All animals were allowed to acclimate and recover from any shipping-related stress for a minimum of 72 hours prior to experimental use. Autoclaved water and irradiated food (5058-ms Pico Lab mouse chow, Purina Mills, Richmond, Ind.) were provided ad libitum, and the animals were maintained on a 12 hour light and dark cycle. Cages, bedding and water bottles were autoclaved before use and changed weekly. All animal experiments were conducted in accordance with the Guide for the Care and Use of Laboratory Animals, local regulations, and protocols approved by the Roche Animal Care and Use Committee in an AAALAC accredited facility.
SJSA cells (ATCC) were maintained in RPMI 1640+10% (v/v) heat-inactivated FBS+i % (v/v) […] L-glutamine. Each mouse received 5×10^6 cells in a 1:1 mixture of phosphate buffered saline and Matrigel in a total volume of 0.2 ml. Cells were implanted subcutaneously in the right flank using a 1 cc syringe and a 26 gauge needle.
Treatment duration was 2-4 weeks. Dates of tumor implant, treatment initiation (study start date), and termination of treatment (study end date) can be found in Table 6 below. The starting tumor volume for this study was about 220 mm^3. Tumor volumes and animal body weights were measured three times per week and animals were monitored for clinical signs daily.

[4] = 100 mg/kg QD po 2 on/12 off x 2
[5] = 200 mg/kg (two 100 mg/kg doses 8 hr apart) 1x/wk po

COc1cc(C(=O)O)ccc1NC(=O)[C@@H]1N[C@@H](CC(C)(C)C)[C@](C#N)(c2ccc(Cl)cc2F)[C@H]1c1cccc(Cl)c1F [Compound A, 4-{[(2R,3S,4R,5S)-4-(4-Chloro-2-fluoro-phenyl)-3-(3-chloro-2-fluoro-phenyl)-4-cyano-5-(2,2-dimethyl-propyl)-pyrrolidine-2-carbonyl]-amino}-3-methoxy-benzoic acid]
Ki-67 IHC Average % CBL ([1]; BM-A1 800 mg bid Qwk × 3): −8.5% | Ki-67 IHC Median % CBL ([1]; BM-A1 800 mg bid Qwk × 3): −8.5% | Ki-67 IHC % CBL ([1]; BM-A1 800 mg bid Qwk × 3): 14% and −31% | Ki-67 IHC Average % CBL ([1]; BM-A2 1200 mg bid Qwk × 3): −27.8% | Ki-67 IHC Median % CBL ([1]; BM-A2 1200 mg bid Qwk × 3): −33.0% | Ki-67 IHC % CBL ([1]; BM-A2 1200 mg bid Qwk × 3): −57% and 30% and −5% and −75% and −33% | Ki-67 IHC Average % CBL ([1]; BM-B1 400 mg bid × 5 d): −17.7% | Ki-67 IHC Median % CBL ([1]; BM-B1 400 mg bid × 5 d): −13.0% | Ki-67 IHC % CBL ([1]; BM-B1 400 mg bid × 5 d): −97% and −13% and 57% | Ki-67 IHC Average % CBL ([1]; BM-B2 500 mg bid × 3 d): −53.9% | Ki-67 IHC Median % CBL ([1]; BM-B2 500 mg bid × 3 d): −69.8% | Ki-67 IHC % CBL ([1]; BM-B2 500 mg bid × 3 d): 3% and −70% (2×) and −79% | Ki-67 IHC Average % CBL ([1]; BM-B3 500 mg qd × 5 d): −57.1% | Ki-67 IHC Median % CBL ([1]; BM-B3 500 mg qd × 5 d): −66.5% | Ki-67 IHC % CBL ([1]; BM-B3 500 mg qd × 5 d): −67% and −96% and −8% | tumor proliferation via Ki67 ([1]; doses and schedules of Table 9): Decrease levels of tumor proliferation | toxicity of longer schedules ([2]; longer schedules): delayed thrombocytopenia | continuous exposure after which maximal apoptosis occurs ([2]; solid tumors): about 48 hours | % Inhibition end of study Day: 32 ([3]; 7.5 mg/kg QD po): 66% | % T/C End of Study Day: 32 ([3]; 7.5 mg/kg QD po): 34% | Mean Tumor Volume (mm3) End Study Day: 32 ([3]; 7.5 mg/kg QD po): 18.01 mm3 | Full Regression ([3]; 7.5 mg/kg QD po): 0 | Partial Regression ([3]; 7.5 mg/kg QD po): 0 | % Inhibition end of study Day: 32 ([3]; 15 mg/kg QD po): 79% | % T/C End of Study Day: 32 ([3]; 15 mg/kg QD po): 21% | Mean Tumor Volume (mm3) End Study Day: 32 ([3]; 15 mg/kg QD po): 16.42 mm3 | Full Regression ([3]; 15 mg/kg QD po): 0 | Partial Regression ([3]; 15 mg/kg QD po): 0 | % Inhibition end of study Day: 32 ([3]; 20 mg/kg QD po 20 on/8 off): 98% | % T/C End of Study Day: 32 ([3]; 20 mg/kg QD po 20 on/8 off): 2% | Mean Tumor Volume (mm3) End Study Day: 32 ([3]; 20 mg/kg QD po 20 on/8 off): 315.19 mm3 | Full Regression ([3]; 20 mg/kg QD po 20 on/8 off): 0 | Partial Regression ([3]; 20 mg/kg QD po 20 on/8 off): 5 | % Inhibition end of study Day: 32 ([3]; 30 mg/kg QD po): regression | % T/C End of Study Day: 32 ([3]; 30 mg/kg QD po): −1% | Average % Regression per Group ([3]; 30 mg/kg QD po): 13% | Mean Tumor Volume (mm3) End Study Day: 32 ([3]; 30 mg/kg QD po): 19.35 mm3 | Full Regression ([3]; 30 mg/kg QD po): 0 | Partial Regression ([3]; 30 mg/kg QD po): 7 | % Inhibition end of study Day: 32 ([3]; 50 mg/kg 1x/wk po): 57% | % T/C End of Study Day: 32 ([3]; 50 mg/kg 1x/wk po): 43% | Mean Tumor Volume (mm3) End Study Day: 32 ([3]; 50 mg/kg 1x/wk po): 22.66 mm3 | Full Regression ([3]; 50 mg/kg 1x/wk po): 0 | Partial Regression ([3]; 50 mg/kg 1x/wk po): 0 | % Inhibition end of study Day: 32 ([3]; 50 mg/kg QD po 2 on/5 off x 4): 99% | % T/C End of Study Day: 32 ([3]; 50 mg/kg QD po 2 on/5 off x 4): 1% | Mean Tumor Volume (mm3) End Study Day: 32 ([3]; 50 mg/kg QD po 2 on/5 off x 4): 257.29 mm3 | Full Regression ([3]; 50 mg/kg QD po 2 on/5 off x 4): 0 | Partial Regression ([3]; 50 mg/kg QD po 2 on/5 off x 4): 3 | % Inhibition end of study Day: 32 ([3]; 50 mg/kg QD po 4 on/10 off x 2): 99% | % T/C End of Study Day: 32 ([3]; 50 mg/kg QD po 4 on/10 off x 2): 1% | Mean Tumor Volume (mm3) End Study Day: 32 ([3]; 50 mg/kg QD po 4 on/10 off x 2): 244.70 mm3 | Full Regression ([3]; 50 mg/kg QD po 4 on/10 off x 2): 0 | Partial Regression ([3]; 50 mg/kg QD po 4 on/10 off x 2): 6 | % Inhibition end of study Day: 32 ([3]; 80 mg/kg QD po 5 on/23 off): regression | % T/C End of Study Day: 32 ([3]; 80 mg/kg QD po 5 on/23 off): −2% | Average % Regression per Group ([3]; 80 mg/kg QD po 5 on/23 off): 35% | Mean Tumor Volume (mm3) End Study Day: 32 ([3]; 80 mg/kg QD po 5 on/23 off): 128.05 mm3 | Full Regression ([3]; 80 mg/kg QD po 5 on/23 off): 2 | Partial Regression ([3]; 80 mg/kg QD po 5 on/23 off): 6 | % Inhibition end of study Day: 32 ([3]; 100 mg/kg 1x/wk po): 94% | % T/C End of Study Day: 32 ([3]; 100 mg/kg 1x/wk po): 6% | Mean Tumor Volume (mm3) End Study Day: 32 ([3]; 100 mg/kg 1x/wk po): 474.73 mm3 | Full Regression ([3]; 100 mg/kg 1x/wk po): 0 | Partial Regression ([3]; 100 mg/kg 1x/wk po): 1 | % Inhibition end of study Day: 32 ([3]; 100 mg/kg QD po 2 on/5 off x 4): regression | % T/C End of Study Day: 32 ([3]; 100 mg/kg QD po 2 on/5 off x 4): −2% | Average % Regression per Group ([3]; 100 mg/kg QD po 2 on/5 off x 4): 47% | Mean Tumor Volume (mm3) End Study Day: 32 ([3]; 100 mg/kg QD po 2 on/5 off x 4): 25.68 mm3 | Full Regression ([3]; 100 mg/kg QD po 2 on/5 off x 4): 0 | Partial Regression ([3]; 100 mg/kg QD po 2 on/5 off x 4): 9 | % Inhibition end of study Day: 32 [3, 4]: regression | % T/C End of Study Day: 32 [3, 4]: 0% | Average % Regression per Group [3, 4]: 11% | Mean Tumor Volume (mm3) End Study Day: 32 [3, 4]: 179.88 mm3 | Full Regression [3, 4]: 0 | Partial Regression [3, 4]: 7 | % Inhibition end of study Day: 32 [3, 5]: regression | % T/C End of Study Day: 32 [3, 5]: −1% | Average % Regression per Group [3, 5]: 29% | Mean Tumor Volume (mm3) End Study Day: 32 [3, 5]: 158.95 mm3 | Full Regression [3, 5]: 0 | Partial Regression [3, 5]: 7 | growth inhibitory activity (FIG. 1) ([3]; 5 day on/23 day off treatment schedule): good growth inhibitory activity
